Experiment: Inhibition of first mitotic cell division in Asterina pectinifera fertilized eggs assessed as minimum effective concentration
Type: functional
Settings: Patiria pectinifera, Egg; read-out: MEC

Structure (SMILES)	minimal effective concentration [µg/mL]
C=CCc1cc(C)ccc1/C(C)=C\C(C)=C\CCC[C@H](O)CNC(C)=O	2.5
C/C=C\c1cc(C)ccc1/C(C)=C\C(C)=C\CCC[C@H](O)CNC(C)=O	2.5

From ChEMBL document CHEMBL1146464, “Two new analogues of the cytotoxic substance BE-52211 from Streptomyces sp” (2004)
